In PMC2858264 (Biochemistry, 2010) one finds Ki data, which are given here for one compound.

The target in the experiment is T1, rR-HPCDH1 (Xanthobacter versatilis, UniProt Q56840).
T1 sequence (Q56840 2-250): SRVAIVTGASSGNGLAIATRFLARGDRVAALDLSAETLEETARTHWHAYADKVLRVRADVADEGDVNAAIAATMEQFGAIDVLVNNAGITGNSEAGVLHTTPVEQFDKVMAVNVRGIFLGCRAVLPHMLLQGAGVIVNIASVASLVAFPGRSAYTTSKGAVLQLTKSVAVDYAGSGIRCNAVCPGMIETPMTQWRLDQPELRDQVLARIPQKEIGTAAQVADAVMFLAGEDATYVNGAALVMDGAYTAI
The experiment can be described thus: NADH absorbance at […] nm, initial rates. The class given is biochemical.

Turning to `CC(C)(O)CSCCS(=O)(=O)O` [M-HPC, 2-(2-methyl-2-hydroxypropylthio)ethanesulfonate], the affinity corresponds to a Ki of 290 ± 14 µM.
